Drawing on patent publication EP0337714A2, “HIV protease inhibitors useful for the treatment of aids” (priority 1988, dated 1989), this text covers IC50 for 4 compounds.

In assay [1] the target is T1, HIV protease (Human immunodeficiency virus type 1 group M subtype B, UniProt P03366).
T1 construct: made in house; host or cells: Escherichia coli
As to the kind of experiment: biochemical. Particulars: protease expressed in Eschericia coli, substrate Val-Ser-Gln-Asn-(betanapthyl)Ala-Pro-ile-Val 0.5 mg/mL, 50 mM Na acetate, pH 5.5, 30°, 1 hour; read-out: ICso. The procedure:
Assay for Inhibition of Microbial Expressed Viral Protease
Inhibition studies of the reaction of the protease expressed in Eschericia coli with a peptide substrate [Val-Ser-Gln-Asn-(betanapthyl)Ala-Pro-ile-Val, 0.5 mg/mL at the time the reaction is initiated] were in 50 mM Na acetate, pH 5.5, at 30° for 1 hour. Various concentrations of inhibitor in 1.0 ul DMSO were added to 25 ui of the peptide solution in water. The reaction is initiated by the addition of 15 ul of 0.33 nM protease (0.11 ng) in a solution of 0.133 M Na acetate pH 5.5 and 0.267% bovine serum albumin. The reaction was quenched with 160 ul of 5% phosphoric acid. Products of the reaction were separated by HPLC (VYDAC wide pore 5 cm C-18 reverse phase, acetonitrile gradient, 0.1% phosphoric acid). The extent of inhibition of the reaction was determined from the peak heights of the products.
Additional compounds were tested by the assay of Example 9.

Assay [2] addresses T1, HIV protease. The experiment in a line: Assay for Inhibition of Synthetic Viral Protease (HPLC of peptide substrate cleavage products). The conditions noted are these: synthetic protease (residues 69-167 of the pol open reading frame), substrate Val-Ser-Gln-Asn-Tyr-Pro-Ile-Val 2 mg/mL, 50 mM Na acetate, pH 5.5, 30 C, 1 hour; read-out: ICso. It is filed as biochemical. On the procedure: Assay for Inhibition of Synthetic Viral Protease
Inhibition studies of the reaction of the synthetic protease [amino acid residues 69-167 of the pol open reading frame in Ratner, L. et al, Nature, 313, 277 (1985) and synthesized by Merrifield solid-phase synthesis] with a peptide substrate[Val-Ser-Gln-Asn-Tyr-Pro-Ile-Val, 2 mg/mL when the reaction is initiated) were in 50 mM Na acetate, pH 5.5, at 30 C for 1 hour. Various concentrations of inhibitor in 1.0 µl DMSO were added to 36 µl of assay solution and the reaction initiated by the addition of 4 ul (1.6 µg) of synthetic protease. The reaction was quenched with 160 ul of 12% acetic acid. Products of the reaction were separated by HPLC (VYDAC wide pore 5 cm C-18 reverse phase, acetonitrile gradient, 0.1% trifluoroacetic acid). The extent of inhibition of the reaction was determined from the peak heights of the products. HPLC of the products, independently synthesized, provided quantitation standards and confirmation of the product composition.

For the compound `CC(C)C[C@H](NC(=O)[C@H](Cc1ccccc1)C[C@H](O)[C@H](Cc1ccccc1)NC(=O)OC(C)(C)C)C(=O)N[C@@H](Cc1ccccc1)C(N)=O` [Compound I, N'-(1,1-Dimethylethoxycarbonyl)-5(S)-amino-4(S)-hydroxy-6-phenyl-2(R)-(phenylmethyl)-hexanoyl-Leucyl-phenylalanyl amide], the IC50 was roughly 0.0006 µM in assay [1] and roughly 0.002 µM in assay [2].

As to `CC(C)C[C@H](NC(=O)[C@H](Cc1ccccc1)C[C@H](O)[C@H](Cc1ccccc1)NC(=O)OC(C)(C)C)C(=O)NCc1ccccc1` [Compound II, N-Benzyl-N'-(1,1-dimethylethexycarbonyl)-5(S)-amino-4(S)-hydroxy-6-phenyl-2(R)-(phenylmethyl)hexanoyl-leucyl-amide], the IC50 in assay [1] was roughly 0.0014 µM. As for `CC(C)(C)OC(=O)N[C@@H](Cc1ccccc1)[C@@H](O)C[C@@H](Cc1ccccc1)C(=O)NCc1ccccc1` [Compound III], the values for the IC50 in assay [1] and in assay [2] were roughly 0.12 µM and roughly 0.05 µM, respectively.

Regarding `CC(C)C[C@H](NC(=O)[C@H](Cc1ccccc1)C[C@H](O)[C@H](CC1CCCCC1)NC(=O)OC(C)(C)C)C(=O)N[C@@H](Cc1ccccc1)C(N)=O` [Compound IV, N'-(1,1-dimethylethoxycarbonyl)-5(S)-amino-4(S)-hydroxy-6-cyclohexyl-2(R)-(phenylmethyl)hexanoyl-leucyl-phenylalanylamide], the IC50 in assay [2] is roughly 0.027 µM.
